Format in all cases: in vivo, human
The subject of series [1] is obsessive compulsive disorder (OCD), anxiety, paranoid delusions. Nature of the series: Case History 5: patient treated with gabapentin. An excerpt:
The patient is a single person who is still studying at University. Their medical history is unremarkable. The patient was first seen by a psychiatrist and followed for obsessive compulsive disorder (OCD) in the United Emirates; the patient tended toward isolativeness. Also, they developed a tic disorder and complained of anxiety.
In February 1994, the patient developed intense paranoid ideation and became more withdrawn. Over the previous two years, the patient had suffered from paranoid delusions and auditory hallucinations. They stopped taking their neuroleptic medication in mid-December while they were a University student. They were admitted as an inpatient in March 1994. […] The patient was discharged with clozapine and lorazepam. In June, the patient was referred for Follow-Up where an anticonvulsant drug, valproic acid was added to potentiate clozapine, but discontinued in August 1994.
In February 1995, gabapentin was added to the patient's treatment. […] Currently, the patient takes clozpine 125 mg BID, […], gabapentin 500 mg HS and procyclidine 5 mg BID.

The subject of series [2] is panic attacks and anxiety disorder. The series can be described thus: Case History 3: patient treated with gabapentin. To be noted: for adverse effect: human, in vivo. The protocol:
A person is a single who is working as a freelance writer. […] They were hospitalized because of severe depression and a suicide attempt by drug overdose. The patient has taken lithium since 1973. They have also had panic attacks since 1978.
In January 1994, the patient was depressed and valproic acid was initiated with lithium and clonazepam. […] Gabapentin 300 mg BID up to 300 mg TID was initiated in their treatment.

For series [3], the system named is chronic severe generalized anxiety disorder with marked insomnia and depression. The series can be described thus: Case History 1: patient treated with gabapentin. To be noted: initiated at a low dose. How it is done:
The patient is a retired patient. […] In their medical history, there is a cervical laminectomy (1988). They report residual pain and weakness in the right arm and right leg and chronic neck pain. They have a history of three months of depression with no treatment (1989) and a history of chronic severe generalized anxiety disorder.
In December 1994, the patient had been taking a benzodiazepine, clonazepam 2.5 mg/day, for the last five years when their anxiety and depression became much worse. Anxiety was associated with marked insomnia and significant situational stressors (financial and marital). […] Patient is now functional for the first time in many years. Improvement continues as of this day. […] Improvement persists.

The test system of series [4] is fast cycling manic depressive illness with anxiety associated with depression. The series can be described thus: Case History 2: patient treated with gabapentin. The conditions noted are these: June to December 1992. How it is done: A person is a retired patient with a family history of bipolar affective illness. The patient has been treated for manic-depressive illness since they experienced their first depressive episode and was hospitalized several times for mania and depression.
[…]), the patient was hospitalized for an episode of acute mania. After that, they were treated with lithium, tryptophan, nicotinamide, clonazepam, Premarin®, Provera® and Overal®. The patient was re-hospitalized for a manic episode […] (1982). They have been treated with various psychotropic drugs, especially: lithium, tryptophan, and clonazepam. Lithium was discontinued in October 1983 until 1985. They were given tryptophan, lecithin and female hormones for control of a severe rapid-cycling bipolar disorder. Fluoxetine, as well as, antiepileptics (carbamazepine and valproic acid) were also added to their treatment.
Due to the patient's fast cycling manic depressive illness, their medication is regularly adjusted. Since 1991 magnesium was added to their regular medication. […] In April 1993, risperidone was initiated and in March 1994 lithium was discontinued. They are currently treated with risperidone, gabapentin 1800 mg QD (initiated in August 1994), clonazepam and ritanserin was recently added to their treatment in an attempt to improve their mood. They also take magnesium and lecithin.

Turning to `Cc1nc2n(c(=O)c1CCN1CCC(c3noc4cc(F)ccc34)CC1)CCCC2` [risperidone], the “psychotic symptoms (paranoid delusions, auditory hallucinations)” value in series [1] (inpatient, March 1994) is given as “did not improve”.

For `NCC1(CC(=O)O)CCCCC1` [gabapentin, (1-aminomethyl)-1-cyclohexaneacetic acid], the adverse effect result is given as “dizziness during the increase of gabapentin but this subsided” in series [1] (during the increase of gabapentin) and “the patient complained of sedation” in series [2].

As for `OC(CCN1CCCC1)(c1ccccc1)C1CCCCC1` (stereo not drawn) [procyclidine], the akathisia result in series [1] (procyclidine 5 mg BID) is listed as “they improved with this medication”.

As for `CNCCC(Oc1ccc(C(F)(F)F)cc1)c1ccccc1` (stereo not drawn) [Fluoxetine], the “clinical response (anxiety and depression)” value in series [3] was “made the patient worse”.

Turning to `CN[C@H]1CC[C@@H](c2ccc(Cl)c(Cl)c2)c2ccccc21` [sertraline], the “clinical response (anxiety and depression)” value in series [3] is “made the patient worse”.

In the case of `CCCC(CCC)C(=O)O` [valproic acid], the adverse effect entry is given as “they were losing their hair” in series [2] and “the patient was losing hair” in series [4]. Besides, the depression entry in series [2] (initiated with lithium and clonazepam, two weeks later) is recorded as “the patient improved”.

The values above are taken from patent publication US6372792B1, “Method for treating anxiety, anxiety disorders and insomnia” (priority 1996, dated 2002).
